From patent publication US20070225334A1, “Methods for treating cognitive and other disorders” (Wyeth, priority 2006, published 2007)

Assays:
[1] = biological target: T1, 5-HT2C receptor (Homo sapiens, UniProt P28335); experiment: 5-HT2C receptor affinity; assay type: binding
T1 sequence (P28335 33-458): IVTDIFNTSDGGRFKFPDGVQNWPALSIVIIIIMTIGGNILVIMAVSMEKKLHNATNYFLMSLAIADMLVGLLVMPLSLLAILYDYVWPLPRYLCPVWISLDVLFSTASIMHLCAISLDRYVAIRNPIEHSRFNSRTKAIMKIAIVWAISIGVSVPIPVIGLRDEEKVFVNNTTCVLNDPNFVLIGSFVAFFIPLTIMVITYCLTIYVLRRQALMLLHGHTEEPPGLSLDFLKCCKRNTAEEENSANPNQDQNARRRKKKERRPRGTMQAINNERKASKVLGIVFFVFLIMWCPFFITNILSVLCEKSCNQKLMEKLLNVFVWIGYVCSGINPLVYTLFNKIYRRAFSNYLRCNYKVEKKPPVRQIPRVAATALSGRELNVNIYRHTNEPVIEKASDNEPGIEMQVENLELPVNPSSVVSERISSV

[2] = system: normal eating and drinking behavior; experiment: Modified procedure for normal feeding and drinking behavior (120 pellets at session start); assay type: in vivo, Sprague-Dawley rat; details: 1 mg/kg
Method: In order to determine if Compound 1 would affect normal eating and drinking behavior, Compound 1 or vehicle was tested under modified conditions. Under these modified conditions, 120 food pellets were placed into the food trough at the beginning of the session and no further food pellets were dispensed. At the end of the test session, the volume of water and the number of food pellets consumed by each rat were measured as described earlier.
(§1) Water consumption was calculated and expressed as percent (%) of vehicle control intake. Results were analyzed using a one-way ANOVA with least significant difference (LSD) post-hoc test. […] Where appropriate, ED50 values (dose that decreases adjunctive water intake to 50% of vehicle values) were calculated using a logistic dose response analysis.

[3] = system: extracellular glutamate levels in the rat mPFC; experiment: In vivo microdialysis, extracellular glutamate in mPFC; set-up: species or system Sprague-Dawley rat; details: 1.7 mg/kg s.c., acute, F(1,15)=4.76, P=0.0454 vs vehicle
Method: (§2) Animals: Adult male Sprague-Dawley rats (Charles River, Wilmington, Mass.) weighing 280-350 g at the time of surgery were used for all microdialysis experiments. Adult male Long-Evans rats (Charles River, Wilmington, Mass.) weighing 180-220 g were used for NOR studies. Rats were housed individually for recognition memory studies. All animals had free access to food and water and were group housed in the AAALAC-accredited facility that was maintained on a 12 h light dark cycle (lights on at 0600 h) for at least 1 week prior to surgery or behavioral testing. All in vivo studies were performed in accordance to the ‘Guide for the Care and Use of Laboratory Animals’ as adopted and promulgated by the National Institutes of Health (Pub. 85-23, 1985).
Stereotaxic Surgery Following induction of anesthesia with 3% halothane (Fluothane; Zeneca, Cheshire, UK), animals were secured in a stereotaxic frame with ear and incisor bars (David Kopf, Tujunga, Calif.). Anesthesia was maintained by continuous administration of halothane (1-2%) while a microdialysis guide cannula (CMA/12, CMA Microdialysis, Stockholm, Sweden) was implanted above the dorsal hippocampus (AP: −4.3 mm ML: −2.6 mm DV: −2.1 mm) or the medial prefrontal cortex (AP: 3.2 mm ML: −0.6 mm DV: −3.8 mm). […]
Dialysate (10 μL) was collected and analyzed for extracellular glutamate concentrations. […]

[4] = system: acetylcholine in medial prefrontal cortex; experiment: In vivo microdialysis, acetylcholine in medial prefrontal cortex; set-up: species or system Sprague-Dawley rat; details: 1.7 mg/kg s.c.
Method: as §2, with “1985). […]” for “1985).”
Analysis of Acetylcholine Dialysate levels of acetylcholine were determined using LC/MS/MS. […]
Acetylcholine data were quantified using peak area against an internal standard and acquired using Masslynx software (Micromass, Beverly, Mass., USA). The mean of the concentration of baseline samples was calculated and denoted as 0%. All sample values were expressed as a percent change from this pre-injection mean baseline value (% change from baseline). Neurochemical data, excluding pre-injection values, were analyzed by a two-way analysis of variance (ANOVA) with repeated measures (time). […]

[5] = biological target: T1, 5-HT2C receptor; experiment: 5-HT2C receptor agonist function; assay type: biochemical
[6] = system: schedule-induced polydipsia; experiment: Schedule-induced polydipsia model of obsessive-compulsive disorder (adjunctive drinking); assay type: in vivo, Sprague-Dawley rat; details: for reduction in adjunctive drinking behavior: relative to vehicle
Excerpt: In this model, a food pellet is delivered once per minute for a two-hour period. A water bottle is available in the test chamber. […] This excessive manifestation of a normal behavior (drinking) provides face validity to the model. […] Most importantly, clinically effective drugs for the treatment of obsessive-compulsive disorder decrease adjunctive drinking.
Male Sprague-Dawley rats weighing 300-400 grams were individually housed in an AALAC-accredited facility that was maintained on a 12-h light dark cycle (lights on at 0600 h) with freely available water. All in vivo studies were performed in accordance to the Guide for the Care and Use of Laboratory Animals as adopted and promulgated by the National Institutes of Health (Pub. 85-23, 1985). Rats were maintained at approximately 85% of their free-feeding body weights by food presented during the session and by post-session feeding.
Procedure Experimental sessions were conducted in a standard operant conditioning chamber placed inside a ventilated sound-attenuating shell that was equipped with white noise to mask extraneous sounds (Med Associates, Georgia, Vt.). A food trough was on the front panel of the chamber and a water bottle was mounted to the side panel. Experimental sessions were 120 minutes in duration and were conducted five days per week (Monday through Friday). Test sessions occurred generally on Tuesdays and Fridays, with the remaining days serving as control days. For each session, one food pellet (Bioserv, 45 mg precision dustless pellet) was dispensed into the food trough each minute for the duration of the session, for a total of 120 pellets being delivered. This schedule of food presentation elicits an abnormal adjunctive drinking behavior in rats such that they consume and exaggerated volume of water, approximately 5-10 fold larger than under normal conditions. Compound 1 or vehicle was administered immediately prior to the start of the experimental session. Each dose of Compound 1 was tested on a separate day, with the appropriate control sessions being conducted prior to each test. At the end of the test session, the volume of water and the number of food pellets that each rat consumed were measured.
as §1

Ki [1]: 0.37 nM
EC50 [5]: 0.4 nM
agonist character at the 5-HT2C receptor [5]: potent full agonist
Compound: NC[C@H]1Cc2cc(F)cc(-c3c(Cl)cccc3Cl)c2O1 (stereo in doubt) [Compound 1, (7-(2,6-dichlorophenyl)-5-fluoro-2,3-dihydrobenzofuran-2-yl)methanamine]
decrease in water consumption relative to vehicle controls ([2]; modified procedure (normal drinking)): 26%
rats failing to eat all food pellets presented ([2]; modified procedure (normal feeding)): two of the six rats tested failed to eat all of the food pellets presented
extracellular glutamate levels [3]: 132%
maximal increase in acetylcholine with respect to baseline [4]: 48%
reduction in adjunctive drinking behavior ([6]; 0.3 mg/kg i.p., p=0.003): 45%
rats not eating all food pellets presented ([6]; 1 mg/kg i.p., schedule-induced polydipsia session): one of the six rats did not eat all of the food pellets presented
reduction in adjunctive drinking behavior ([6]; 1 mg/kg i.p., p<0.0001): 81%
effect on adjunctive drinking behavior ([6]; 0.1-1 mg/kg, i.p., acute, F(3,20)=16.91, p<0.0001): dose-dependent decrease
ED50 ([6]; Rattus norvegicus, ip, 95% CI: 0.22-0.57 mg/kg, read-out: ED50 (dose that decreases adjunctive water intake to 50% of vehicle values)): 0.36 mg/kg
